# Experimental data from patent US20240425529A1, “BORIC ACID DERIVATIVE” (SHOUYAO HOLDINGS (BEIJING) CO., LTD., priority 2021, published 2024).
# What was measured:
# [1] = Animal pharmacokinetic study in rats, single gavage; format: in vivo; settings: rat, po; male rats, single gavage 5 mg/kg, plasma
# Experimental: Three healthy adult male rats from Beijing Vital River Experimental animal Technology Co. Ltd were used for animal pharmacokinetic experiments. The compounds were suspended in 20% sulfobutyl ether-β-cyclodextrin (W/W/V) at a concentration of 1 mg/mL at a dosing volume of 5 mL/kg by single gavage at a dose of 5 mg/kg. Animals were fasted overnight before the experiment, from 10 hours before the administration to 4 hours after the administration. Blood was collected at 0.25, 0.5, 1, 2, 4, 6, 8, and 24 hours after the administration. The animals were anesthetized with isoflurane. About 0.4 mL of whole blood was collected from the orbital venous plexus using a glass blood collection tube and placed in a heparin anticoagulant tube. The sample was centrifuged at 4200 rpm for 5 min at 4° C. The plasma was transferred to a centrifuge tube and stored at −80° C. for later analysis. The plasma sample analysis used the acetonitrile protein precipitation method to extract the compound to be tested and internal standard (Warfarin or Propranolol) from rat plasma, and the extraction solution was analyzed by LC/MS/MS. The plasma concentration-time data of individual animals measured were analyzed using anon-compartmental model using the WinNonlin (version 5.2.1; Pharsight company) software, and the following pharmacokinetic parameters were obtained: maximum (peak) plasma drug concentration Cmax; Time to max Tmax; the area under the curve AUC0-inf of blood drug concentration-time from half-life T½ and extrapolation to infinite time.
# [2] = tested on: multiple myeloma cells U266B1; test: In-vivo assay II: subcutaneous xenograft model of multiple myeloma cells U266B1 in mice; settings: NOG mice
# Experimental: Evaluation assay of LMP7 Inhibitors in a subcutaneous xenograft model of multiple myeloma cells U266B1 in mice
# Female NOG mice, week old: 6-8 weeks old, certificate No: SCXK(Jing) 2021-0006, purchased from Beijing Vital River Experimental Animal Technology Co. Ltd.
# The specific method was that mice were housed in an SPF environment. Every 5 mice were housed in 1 cage. Animals were free to drink and eat and were adaptively raised for one week. Laboratory conditions: room temperature 18-24° C., relative humidity 40%-70%, ventilated with a ventilation fan, natural light source for 12 hours per day. Cages, bedding, drinking water, and feed were replaced twice a week, and the replaced cages and drinking water bottles were cleaned and then sterilized by steam under high pressure. Cages, room walls, and floors were cleaned twice a week with 84-disinfectant or bromogeramine.
# U266b1 (China Center for Type Culture Collection, College of Life Sciences at Wuhan University) cells were cultured using RPMI-1640 medium supplemented with 20% fetal bovine serum and 1% Penicillin-Streptomycin at 37° C. in an atmosphere of 5% CO2 in the air. Cells were routinely sub-cultured twice weekly, and cells grown in the exponential growth phase were harvested and counted. Cell suspensions were mixed well at 1:1 in Matrigel™ (Corning Matrigel™ Normal Basement Membrane) for tumor cell inoculation.
# Each mouse was subcutaneously injected with 0.1 ml of PBS-suspended U266B1 cell suspension (containing 1.0×10^7 cells, 50% Matrigel) at the axillary sites on both sides to establish a subcutaneous transplanted tumor model of multiple myeloma cells U266B1 in mice. […] Tumor diameter and body weight were measured 3 times per week during the experiment. […]
# The study endpoints were tumor growth inhibition, maximum tumor burden (individual tumor size equal to 10% of body weight), and weight loss greater than 20% of body weight at the start of treatment. The tumor volume was calculated as V=0.5×a×b^2, where V is the tumor volume and a and b are the length and width of the tumor, respectively. […]
# [3] = 0.3 mg/kg orally once daily, Day 14
SMILES,AUC(0-inf) [1] [ng·h/mL],Cmax [1] [ng/mL],Tmax [1] [h],half-life [1] [h],animal death or weight loss caused by the compound ([2]; 0.3 mg/kg orally once daily for 14 days),"T/C [2, 3] [%]","TGI (tumor growth inhibition rate) [2, 3] [%]"
"O=C(Nc1cnccn1)C(=O)N[C@@H](Cc1coc2ccccc12)B(O)O [Ex. 9, (R)-(2-(benzofuran-3-yl)-1-(2-oxo-2-(pyrazin-2-ylamino)acetamido)ethyl) boronic acid]",38600,3880,2.67,5.58,no animal death or weight loss,9.76,104.45
"O=C(Nc1nc2ccccc2s1)C(=O)N[C@@H](Cc1coc2ccccc12)B(O)O [Ex. 27, (R)-(2-(benzofuran-3-yl)-1-(2-oxo-2-((benzo[d]thiazol-2-yl)amino)acetamido)ethyl)boronic acid]",24200,1910,3.33,5.17,–,–,–
"Cc1cnc(NC(=O)C(=O)N[C@@H](Cc2coc3ccccc23)B(O)O)s1 [Ex. 32, (R)-(2-(benzofuran-3-yl)-1-(2-oxo-2-((5-methylthiazol-2-yl)amino)acetamido)ethyl)boronic acid]",22200,1090,0.67,25.3,–,–,–

# Continued, in another order:
AUC(0-inf) [1] [ng·h/mL],Cmax [1] [ng/mL],Tmax [1] [h],half-life [1] [h],SMILES,animal death or weight loss caused by the compound ([2]; 0.3 mg/kg orally once daily for 14 days),"T/C [2, 3] [%]","TGI (tumor growth inhibition rate) [2, 3] [%]"
26500,3930,0.58,14.7,O=C(Nc1ccccn1)C(=O)N[C@@H](Cc1coc2ccccc12)B(O)O [Ex. 12],–,–,–
25400,1430,0.92,16.4,"O=C(Nc1cc(Cl)ccn1)C(=O)N[C@@H](Cc1coc2ccccc12)B(O)O [Ex. 49, (R)-(2-(benzofuran-3-yl)-1-(2-oxo-2-((4-chloropyridin-2-yl)amino)acetamido)ethyl)boronic acid]",–,–,–
